# According to a melting point compilation (Tetko et al.; mined from patent text by program, amines drawn as free bases though some values may be those of a salt):
row,melting point,Structure (SMILES)
1,79 °C,O=C(Cl)Cc1ccccc1Br
2,135 °C,Cc1cc(Cn2nc(-c3ccccc3)oc2=O)cc(C)c1O
3,144 °C,COc1cc(C(=O)Nc2c(C)cccc2C)nn1C
4,61 to 63 °C,CCCCCCC(C)Nc1ccc2c(c1)CCN2c1ncnc2cc(OC)c(OC)cc12 (centres undefined)
5,90 to 91 °C,COC(=O)c1ccc(Cl)cc1NC(=O)CSc1ccc(C)c(C)c1
6,130 to 135 °C,CC1(C2CCC3C4CCC5CC=CCC5(C)C4C(=O)CC32C)OCCO1 (centres undefined)
7,150 to 152 °C,CCCN1N=C2C(=Cc3ccc(OC)cc3)CSCC2C1c1ccc(OC)cc1 (centres undefined)
8,92 to 93 °C,CCOC(=O)c1cn(Cc2ccccc2)nc1OCc1cccc(OCc2nc(-c3ccco3)oc2C)c1
9,177 to 178 °C,NC(=O)N(O)CC(=O)Nc1cccc(OCc2ccccc2)c1
10,> 250 °C,COc1cc2ncc(C#N)c(Nc3cccc(SC)c3)c2cc1OC
11,200 °C,CNC(=O)NCCN1CCC(Nc2nc3ccccc3n2Cc2ccc(C)o2)CC1
12,122 to 124 °C,Cc1c(CC2CCc3c(c4ccccc4n3C)C2=O)ncn1S(=O)(=O)N(C)C (centres undefined)
13,80 to 81 °C,COC(=O)C[C@H](O)C[C@H](O)CCc1c(-c2ccc(F)cc2)c(-c2ccccc2)c(C(=O)Nc2cccc(S(N)(=O)=O)c2)n1C(C)C
14,220 °C,O=C(c1c(F)cccc1F)N1CS(=O)CN(c2ccc(Cl)cc2)C1=O (centres undefined)
15,139 to 140 °C,COc1ccc(NC2=NC(C)(C)Cc3cc(OC)c4c(c32)CC(C)(C)O4)cc1
16,230 °C,CC(C)Nc1ncnc2cscc12
17,200 to 202 °C,c1cncc(-c2ccc3nncn3c2)c1
18,77 to 78 °C,CCOC(=O)CCCCCCC(=O)c1ccc2cc(OC)ccc2c1
19,154 to 155 °C,CSc1ccc(/C=C2\N=C(C)OC2=O)cc1
20,173 to 174 °C,CCOC(=NO)C(=O)C1=Nc2ccccc2C(=O)N(C)C1
21,157 to 160 °C,N#Cc1ccc(N(Cc2ccccc2)n2cnnc2)cc1-c1ccc(OS(N)(=O)=O)cc1
22,53 to 55 °C,COc1cc2c(c(OC)c1)C1CCC3(C)C(O)CCC3C1CC2 (centres undefined)
23,53 to 54.5 °C,COC(=O)c1snc(-c2cccc(C)c2)c1C(=O)OC
24,121 °C,NC(=S)N1CCCCc2cccnc21

row,melting point,Structure (SMILES)
1,106 to 107 °C,CCCCN/C(=C1/Sc2ccccc2C1=O)c1ccccc1
2,87 to 89 °C,O=C(OC1CCN(Cc2ccccc2)CC1)c1ccc([N+](=O)[O-])cc1
3,145 to 146 °C,Cc1nc2c(N)nc3ccccc3c2n1CCCOCCCc1ccccc1
4,102 to 103 °C,COc1nc(Cl)cnc1N
5,224 to 226 °C,COc1cc(C)nc(NC(=O)NS(=O)(=O)c2cccc3c2S(=O)(=O)C(C)C3)n1 (centres undefined)
6,91 to 92 °C,CS(=O)(=O)O[C@H]1C[C@@H](C(=O)OCc2ccccc2)N(S(C)(=O)=O)C1
7,273 to 276 °C,O=C(O)c1cc(Cl)cc(Cl)c1NS(=O)(=O)c1ccc(Cl)cc1
8,147 to 151 °C,CNC(=O)C(Cc1ccc(OC)cc1)NC(=O)C(CC(C)C)C(CC(=O)OC(C)(C)C)SC(C)=O (centres undefined)
9,180 °C,Cc1ccc(S(=O)(=O)c2ncccc2NC(=O)N[C@@H](Cc2ccc(NC(=O)c3c(Cl)cccc3Cl)cc2)C(=O)O)cc1
10,108 to 110 °C,CCOC(=O)c1cc2cc(-c3ccc(Cl)cc3)ccc2o1
11,142 to 145 °C,CNCCN1C(=O)[C@H](O)[C@H](c2ccc(OC)cc2)Sc2cc(Cl)ccc21
12,107 to 112 °C,CCNC(=O)c1c([Si](C)(C)C)sc2c1CCCC2
13,297 to 300 °C,O=C(O)Cc1ccc(Cc2n[nH]c3c2c(=O)n(-c2ccccc2)c2ncccc32)cc1
14,192 °C,CN1CCN(c2ccc(-c3[nH]nc4c3C(=O)c3c(NC(=O)NN(C)C)cccc3-4)cc2)CC1
15,204 to 206 °C,Cc1c(F)c(NCc2ccccc2)cc2oc(=O)[nH]c12
16,288 to 289 °C,COC1(c2ccccc2)CCc2c(C(=O)O)cc3c(nc(C)n3C)c2O1 (centres undefined)
17,115 to 117 °C,COc1cc(C(F)(F)F)cnc1O
18,74 to 76 °C,Cc1[nH]cnc1CSCCO
19,146 °C,CSc1cccc(C(=C2CN(C(c3ccccc3)c3ccccc3)C2)S(C)(=O)=O)c1
20,233 to 234 °C,CCCCCCc1nc2cc3c(cc2[nH]1)NC(=O)C3(C)C
21,149 °C,CCOCCC(=O)OC1(C(=O)CO)CCC2C3CCC4=CC(=O)CCC4(C)C3C(O)CC21C (centres undefined)
22,71 to 73 °C,CCCCCCCCCCCCCCC(F)CC(NC(C)=O)(C(=O)OCC)C(=O)OCC (centres undefined)
23,120 to 122 °C,NS(=O)(=O)c1ccco1
24,200 °C,CCOC(=O)C1=C(C)NC(N)=C(C(=O)OC(C)C)C1c1ccccc1C#N (centres undefined)

row,melting point,Structure (SMILES)
1,232 °C,COCOc1ccc(-c2ncc3ncc(NC(=O)c4cccnc4)cc3n2)cc1
2,140 to 142 °C,CCCCCCc1ccc(-c2c(C#N)nn(C(C)(C)Cc3ccc(C)cc3)c2O)cc1
3,37 to 43 °C,CCOC(=O)c1c(C(F)F)nc(C(F)(F)F)c(C(=O)OCC)c1Br
4,129 to 131 °C,CC(C)c1nc(-c2cccc3c2OCO3)cc(-c2ccc(F)cc2)c1C=C(Br)Br
5,> 280 °C,Nc1cc(=O)[nH]c(=O)n1-c1ccccc1
6,117 to 118 °C,O=C(c1cc2cc(OCCNC[C@H](O)COc3ccccc3)ccc2o1)N1CCCC1
7,191 to 193 °C,COC(=O)c1c(I)cccc1Nc1ccccc1C(=O)O
8,250 to 251 °C,Cc1sc(C(=O)O)c2c1-c1c(cnn1CC(F)(F)F)CC2
9,176 to 177 °C,CNC(=O)C1Cc2c(n(C)c3ccc(OCc4ccccc4)cc23)C1 (centres undefined)
10,174 to 176 °C,CCOC(=O)C(NC=O)=C(c1ccc(F)cc1)c1ccc(F)cc1
11,102 to 107 °C,COC(=O)CCc1ccc(NC(=O)C(COC2CCCCO2)NS(=O)(=O)c2ccc(Cl)cc2)cc1 (racemic)
12,71 to 72 °C,COc1cc(Cl)c(CO)c(Cl)c1
13,218 to 220 °C,COc1ccnc(CCc2nc3cc(-c4ccc(S(=O)(=O)N5CCN(c6ccccc6)CC5)cc4)cnc3[nH]2)c1
14,164 to 165 °C,Cc1cc(C#Cc2cn(-c3ncccn3)c(C)n2)ccn1
15,124 °C,CC(C)(C)c1cc(C=O)cc(I)c1O
16,90 to 105 °C,O=C(O)C1C(C=C(Cl)Cl)C12CCCC2 (centres undefined)
17,160 to 163 °C,CC(C)ON=C(c1cccc(O)c1)n1cncn1
18,263 to 265 °C,FC(F)(F)c1ccc2nc(N3CCN(c4c(Cl)cccc4Cl)CC3)[nH]c2c1
19,223 to 227 °C,CCCCc1nc2c(N)nc3ccc(O)cc3c2n1CCCCNS(C)(=O)=O
20,147 to 150 °C,Cc1noc(NS(=O)(=O)c2ccccc2-c2cccnc2)c1C
21,79 to 81 °C,O=C(Nc1ccc(O)cn1)C(CC1CCCC1)c1ccc(Cl)c(Cl)c1 (centres undefined)
22,156 to 160 °C,O=c1cc(C(F)(F)F)cnn1-c1cc(Oc2ncccn2)c(Cl)cc1F

row,Structure (SMILES),melting point
1,Sc1nc2cc(N3CCNCC3)ccc2[nH]1,260 to 261 °C
2,CCOC(=O)c1ncn2c1CN=C(c1ccccc1F)c1cc(C#C[Si](C)(C)C)ccc1-2,196 to 198 °C
3,CN1Cc2c(-c3noc(C4CC4)n3)ncn2-c2cccc(Cl)c2C1=O,165 to 169 °C
4,Clc1cnc(N2CCNCC2)cn1,98 to 102 °C
